Data from EP3444615A1, “METHODS AND COMPOSITIONS FOR DIAGNOSTIC EVALUATION AND THERAPEUTIC CORRECTION OF THE NO-HAEM SIGNALLING PATHWAY(S) IN ANIMALS AND HUMANS” (Freiberg Instruments GmbH, priority 2017, dated 2019).

Legend:
[1] = test system: isolated rat mesenteric arteries; assay: vasodilation in isolated mesenteric arteries
[2] = test system: anesthetized Wistar rat; assay: blood pressure study, subcutaneous injection; format: in vivo; details: after injection of sGC inhibitor methylene blue; Fig. 8
Description: For the pilot experiment, a male Wistar rat weighing 350g from Janvier Labs (Le Genest-Saint-Isle, France) was used. Rat was anaesthetised with isoflurane 1-2% (Baxter S.A.S, Maurepas, France) and analgesia was ensured by sufentanil (Mylan, Pittsburgh PA, USA) (0.1 µg/kg of body weight) administered subcutaneously. Animal was tracheotomised and lungs ventilated throughout the experiment. The ventilator (Harvard Rodent Ventilator 683, Harvard Instruments, South Natick, MA, USA) was set to maintain a PaCO2 of 40 mmHg and oxygen was added to maintain a PaO2 of 100 mmHg. The left femoral artery was used to measure mean arterial pressure (MAP) and heart rate (HR). The rectal temperature was continuously monitored. The NO-ferrohaem was injected at dose 2µmol/kg (s.c.) before and after the injection of methylene blue (1 µmol/kg; s.c.). In the end of experiment rat was euthanized using the lethal dose of Pentothal (100 mg/kg; i.v.).

[3] = test system: human platelet-rich plasma (PRP); assay: U46619-induced platelet aggregation in platelet-rich plasma (aggregometer); format: cell-based
Description: Human venous blood was collected into a plastic polypropylene syringe containing sodium citrate. […] Platelet-rich-plasma (PRP) was prepared by centrifugation of the blood at 180g for 10 minutes at room temperature. The cloudy supernatant containing platelets was carefully removed with a pipette and transferred into a clean polypropylene tube and capped. Platelets were used for the experiments within 3 hr after blood collection. Platelet function studies were performed using a Dual Channel Aggregometer (Chronolog, Havertown). The PRP was adjusted to a platelet count of 200-300x 10^6/ml. Platelet aggregation was induced by the addition of a synthetic thromboxane A2 receptor agonist, U46619 (Cayman Chemical, Ann Arbor). PRP was placed in the aggregometer cuvette and continuously stirred at the rate of 1000 rpm. Platelet aggregation was determined by measuring the change in the optical density after addition of 1µM U46619. […]

[4] = test system: anesthetized rats; assay: blood pressure after intravenous bolus injection; format: in vivo; details: 10 nmol/kg
[5] = test system: mouse femoral artery; assay: isometric tension study, wire myograph, pre-contracted artery rings; details: Fig. 7
Description: For the pilot experiment a male Swiss mouse (35 g) was sacrificed under ether anaesthesia. Femoral artery was isolated and cleaned from the adhering fat and connective tissue. Artery rings (2 mm) with endothelium were mounted in the organ chambers filled with Krebs solution continuously bubbled with 95% 02/ 5% CO2 at 37°C. The composition of the solution was as following: 119 mM NaCl, 4.7 mM KCI, 14.9 mM NaHCO3, 1.2 mM MgSO4.7H2O, 2.5 mM CaCl2, 1.18 mM KH2PO4, and 5.5 mM glucose; pH 7.4. Vascular reactivity was measured by the monitoring the changes in isometric tension using a wire myograph (Danish Myo Technology, Arhus, Denmark). After pre-contraction of arterial rings with 1µM 5-HT (serotonin; Sigma-Aldrich), the cumulative concentrations of NO-ferrohaem were added. In the end of experiment, an inhibitor of the soluble guanylate cyclase (ODQ; 1µM) was added.

[6] = target: T1, isolated sGC (Bos taurus, UniProt P16068); details: bare ferrohaem, in contrast to NO-ferrohaem; cited from earlier work
T1 construct: host or cells: bovine lung (from a cited title)
T1 sequence (P16068 1-619): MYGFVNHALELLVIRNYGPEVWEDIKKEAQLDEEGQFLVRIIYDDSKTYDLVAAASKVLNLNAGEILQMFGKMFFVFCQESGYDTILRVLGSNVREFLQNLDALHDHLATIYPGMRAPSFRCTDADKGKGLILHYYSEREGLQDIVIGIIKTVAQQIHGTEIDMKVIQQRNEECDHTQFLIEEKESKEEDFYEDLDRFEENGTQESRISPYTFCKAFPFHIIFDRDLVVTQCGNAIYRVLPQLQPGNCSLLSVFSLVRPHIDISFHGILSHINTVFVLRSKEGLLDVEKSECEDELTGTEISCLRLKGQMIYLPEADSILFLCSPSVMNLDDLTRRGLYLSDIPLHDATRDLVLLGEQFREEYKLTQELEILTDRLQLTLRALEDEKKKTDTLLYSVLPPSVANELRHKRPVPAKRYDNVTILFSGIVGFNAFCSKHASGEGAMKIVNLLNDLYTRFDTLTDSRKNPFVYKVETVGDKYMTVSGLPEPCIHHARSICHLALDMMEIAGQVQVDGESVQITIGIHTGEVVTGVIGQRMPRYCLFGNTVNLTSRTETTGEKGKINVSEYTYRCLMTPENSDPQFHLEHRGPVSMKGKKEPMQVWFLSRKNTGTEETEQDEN
T1 sequence (P19687 1-691 partner): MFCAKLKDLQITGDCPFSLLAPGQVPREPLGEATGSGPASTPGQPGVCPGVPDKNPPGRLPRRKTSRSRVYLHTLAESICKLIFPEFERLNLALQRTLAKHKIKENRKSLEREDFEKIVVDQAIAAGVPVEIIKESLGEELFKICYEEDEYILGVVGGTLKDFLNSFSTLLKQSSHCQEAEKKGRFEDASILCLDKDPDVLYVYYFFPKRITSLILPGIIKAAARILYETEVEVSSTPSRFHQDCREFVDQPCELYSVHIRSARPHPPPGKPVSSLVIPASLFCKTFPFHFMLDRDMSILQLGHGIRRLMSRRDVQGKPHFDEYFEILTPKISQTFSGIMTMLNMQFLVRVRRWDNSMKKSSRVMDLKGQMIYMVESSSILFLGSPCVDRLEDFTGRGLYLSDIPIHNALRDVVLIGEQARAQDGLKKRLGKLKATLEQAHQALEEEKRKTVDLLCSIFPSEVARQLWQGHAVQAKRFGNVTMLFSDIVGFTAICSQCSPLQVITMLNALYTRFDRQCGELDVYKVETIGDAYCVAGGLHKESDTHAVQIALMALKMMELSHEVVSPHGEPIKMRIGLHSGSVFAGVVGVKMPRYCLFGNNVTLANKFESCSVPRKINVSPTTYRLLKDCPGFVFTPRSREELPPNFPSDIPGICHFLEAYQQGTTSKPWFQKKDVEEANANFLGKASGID

Row | SMILES | vasodilating activity [1] | effect of methylene blue on hypotensive activity [2] | U46619-induced platelet aggregation ([3]; 1 nM, 10nM or 100nM added 30 seconds before 1µM U46619, Fig. 6) | inhibition of thromboxane-induced platelet aggregation ([3]; at low nM concentrations, human platelet-rich plasma) | blood pressure effect [4] | relaxation of pre-contracted arteries ([5]; 5-HT (1µM)-pre-contracted, 100nM-100µM concentration range) | effect of ODQ on the NO-ferrohaem-induced relaxation ([5]; plus sGC inhibitor ODQ (1µM)) | effect on basal activity of isolated sGC [6]
1 | C=Cc1c(C)c2[n]3c1C=C1N=C(C=C4N=C(C=c5c(C)c(C=C)c([n]5[Fe]3[N]=O)=C2)C(C)=C4CCC(=O)O)C(CCC(=O)O)=C1C [NO-ferrohaem, nitrosylated ferrous protoporphyrin IX] | direct long-lasting vasodilating activity | prevented this NO-ferrohaem activity | concentration-dependently prevented the aggregation | efficiently inhibits | sGC-inhibitor-sensitive hypotension | concentration-dependent relaxation | completely reversed | 
2 | C=Cc1c(C)c2[n]3c1C=C1N=C(C=C4N=C(C=c5c(C)c(C=C)c([n]5[Fe]3)=C2)C(C)=C4CCC(=O)O)C(CCC(=O)O)=C1C [ferrohaem] |  |  |  |  |  |  |  | inhibits the basal activity of isolated sGC
